In patent US9440957B2, “Compounds and compositions for modulating EGFR Activity” (Novartis AG, priority 2012, dated 2016):

Legend:
Assay type in all cases: cell-based
[1] = target: human EGFR L858R (NIH/3T3 cells) (Homo sapiens, UniProt P00533, L858R); test: EGFR target modulation in engineered NIH/3T3 cell lines (phospho-EGFR Y1068 AlphaLISA), EGFR L858R; settings: engineered NIH/3T3 cells, read-out: NIH3T3 IC50 (μM) EGFR (L858R)
Method in brief: (§1)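 Engineered NIH/3T3 cells were plated overnight, then exposed to a 12-point 1:3 compound series (from a 10 μM stock) for 3 hours at 37 °C. WT-expressing cells alone were stimulated with 50 ng/ml EGF for 5 minutes before lysis. IC50s came from non-linear fits of AlphaLISA signal.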

[2] = target: human EGFR L858R/T790M (NIH/3T3 cells) (Homo sapiens, UniProt P00533, L858R/T790M); test: EGFR target modulation in engineered NIH/3T3 cell lines (phospho-EGFR Y1068 AlphaLISA), EGFR L858R/T790M; settings: engineered NIH/3T3 cells, read-out: NIH3T3 IC50 (μM) EGFR (L858R/T790M)
Sequence of human EGFR L858R/T790M (NIH/3T3 cells) (P00533 25-1210 T790M/L858R): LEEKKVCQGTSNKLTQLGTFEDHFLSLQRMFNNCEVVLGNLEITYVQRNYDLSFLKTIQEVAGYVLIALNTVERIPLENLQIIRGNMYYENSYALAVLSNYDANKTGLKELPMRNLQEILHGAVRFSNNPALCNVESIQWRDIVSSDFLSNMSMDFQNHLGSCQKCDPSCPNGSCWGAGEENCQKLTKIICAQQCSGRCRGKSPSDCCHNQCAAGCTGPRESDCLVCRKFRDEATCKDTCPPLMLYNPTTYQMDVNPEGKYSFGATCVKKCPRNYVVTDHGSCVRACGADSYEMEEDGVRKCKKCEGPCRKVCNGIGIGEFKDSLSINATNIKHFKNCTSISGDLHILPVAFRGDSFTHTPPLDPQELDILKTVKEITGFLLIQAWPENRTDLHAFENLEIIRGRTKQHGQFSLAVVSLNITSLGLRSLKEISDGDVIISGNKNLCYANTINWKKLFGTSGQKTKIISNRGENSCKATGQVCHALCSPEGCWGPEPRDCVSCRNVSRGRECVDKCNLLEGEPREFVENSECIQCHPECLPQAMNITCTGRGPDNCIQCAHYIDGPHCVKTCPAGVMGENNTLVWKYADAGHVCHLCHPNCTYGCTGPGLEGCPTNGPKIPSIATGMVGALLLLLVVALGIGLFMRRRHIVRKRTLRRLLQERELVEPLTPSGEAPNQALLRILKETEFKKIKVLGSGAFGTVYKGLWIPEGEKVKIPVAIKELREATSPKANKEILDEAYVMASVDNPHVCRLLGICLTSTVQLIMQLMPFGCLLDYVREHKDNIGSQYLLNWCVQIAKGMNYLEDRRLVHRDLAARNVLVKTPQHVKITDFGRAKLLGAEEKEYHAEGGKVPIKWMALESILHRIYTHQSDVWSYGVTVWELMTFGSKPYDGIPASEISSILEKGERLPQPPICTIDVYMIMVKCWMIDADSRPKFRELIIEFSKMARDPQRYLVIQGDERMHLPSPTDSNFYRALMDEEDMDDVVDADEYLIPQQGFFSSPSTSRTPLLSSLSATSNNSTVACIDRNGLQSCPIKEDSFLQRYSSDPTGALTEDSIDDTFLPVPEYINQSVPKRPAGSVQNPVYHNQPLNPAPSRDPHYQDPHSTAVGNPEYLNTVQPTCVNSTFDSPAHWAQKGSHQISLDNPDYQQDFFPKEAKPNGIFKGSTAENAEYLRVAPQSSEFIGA
Method in brief: as §1

[3] = target: H1975 (EGFR L858/T790M) (Homo sapiens, UniProt P00533, L858R/T790M); test: EGFR target modulation in H1975 cell line (phospho-EGFR Y1173 ELISA)
Sequence of H1975 (EGFR L858/T790M) (P00533 25-1210 T790M/L858R): as above
Method in brief: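 3 h compound exposure of cells in 10% FBS/RPMI, 37 °C; lysis on ice 20 min; lysate captured overnight at 4 °C on anti-EGFR-coated plates; anti-rabbit-HRP, chemiluminescence.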

[4] = target: HaCaT (EGFR WT) (Homo sapiens, UniProt P00533); test: EGFR target modulation in HaCaT (EGFR-WT) cell line (phospho-EGFR Y1173 ELISA); settings: value in parentheses
Sequence of HaCaT (EGFR WT) (P00533 25-1210): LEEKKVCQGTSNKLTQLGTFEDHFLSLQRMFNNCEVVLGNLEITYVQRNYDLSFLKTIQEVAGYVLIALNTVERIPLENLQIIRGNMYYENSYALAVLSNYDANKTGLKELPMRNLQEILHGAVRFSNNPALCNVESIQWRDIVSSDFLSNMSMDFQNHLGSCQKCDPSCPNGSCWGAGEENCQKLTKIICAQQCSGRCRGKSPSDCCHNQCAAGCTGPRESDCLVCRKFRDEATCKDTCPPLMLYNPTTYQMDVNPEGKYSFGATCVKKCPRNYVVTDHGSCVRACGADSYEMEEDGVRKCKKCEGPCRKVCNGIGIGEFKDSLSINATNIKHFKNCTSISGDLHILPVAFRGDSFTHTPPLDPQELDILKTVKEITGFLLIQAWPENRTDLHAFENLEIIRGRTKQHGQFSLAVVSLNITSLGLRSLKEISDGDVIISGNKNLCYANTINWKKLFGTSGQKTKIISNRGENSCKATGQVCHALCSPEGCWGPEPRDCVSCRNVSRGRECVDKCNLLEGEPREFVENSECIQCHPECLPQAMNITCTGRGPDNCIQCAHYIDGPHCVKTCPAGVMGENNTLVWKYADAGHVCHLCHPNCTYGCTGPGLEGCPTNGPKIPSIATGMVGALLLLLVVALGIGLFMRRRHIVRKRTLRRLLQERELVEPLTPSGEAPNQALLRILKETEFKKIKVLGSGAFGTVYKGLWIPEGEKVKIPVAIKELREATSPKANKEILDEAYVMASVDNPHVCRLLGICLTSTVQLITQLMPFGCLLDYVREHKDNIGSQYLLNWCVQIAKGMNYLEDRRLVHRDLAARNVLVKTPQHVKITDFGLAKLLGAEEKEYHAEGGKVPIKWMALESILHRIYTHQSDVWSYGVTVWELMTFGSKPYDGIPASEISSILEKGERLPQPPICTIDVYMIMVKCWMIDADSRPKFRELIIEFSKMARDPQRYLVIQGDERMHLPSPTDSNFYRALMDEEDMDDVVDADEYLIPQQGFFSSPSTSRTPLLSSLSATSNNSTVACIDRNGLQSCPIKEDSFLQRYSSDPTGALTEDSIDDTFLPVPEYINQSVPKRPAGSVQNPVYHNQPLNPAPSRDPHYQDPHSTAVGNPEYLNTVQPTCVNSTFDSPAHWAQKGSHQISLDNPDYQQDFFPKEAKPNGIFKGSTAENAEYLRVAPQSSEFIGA
Method in brief: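 Read-out was chemiluminescent ELISA: lysates were captured overnight at 4 °C by anti-EGFR antibody and probed with an HRP secondary. Before lysis, wild-type-EGFR HaCaT cells received compound for 3 h plus EGF stimulation. EGF-only cells defined maximal signal, and IC50 values were obtained by non-linear curve fitting.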

Sequence of human EGFR L858R (NIH/3T3 cells) (P00533 25-1210 L858R): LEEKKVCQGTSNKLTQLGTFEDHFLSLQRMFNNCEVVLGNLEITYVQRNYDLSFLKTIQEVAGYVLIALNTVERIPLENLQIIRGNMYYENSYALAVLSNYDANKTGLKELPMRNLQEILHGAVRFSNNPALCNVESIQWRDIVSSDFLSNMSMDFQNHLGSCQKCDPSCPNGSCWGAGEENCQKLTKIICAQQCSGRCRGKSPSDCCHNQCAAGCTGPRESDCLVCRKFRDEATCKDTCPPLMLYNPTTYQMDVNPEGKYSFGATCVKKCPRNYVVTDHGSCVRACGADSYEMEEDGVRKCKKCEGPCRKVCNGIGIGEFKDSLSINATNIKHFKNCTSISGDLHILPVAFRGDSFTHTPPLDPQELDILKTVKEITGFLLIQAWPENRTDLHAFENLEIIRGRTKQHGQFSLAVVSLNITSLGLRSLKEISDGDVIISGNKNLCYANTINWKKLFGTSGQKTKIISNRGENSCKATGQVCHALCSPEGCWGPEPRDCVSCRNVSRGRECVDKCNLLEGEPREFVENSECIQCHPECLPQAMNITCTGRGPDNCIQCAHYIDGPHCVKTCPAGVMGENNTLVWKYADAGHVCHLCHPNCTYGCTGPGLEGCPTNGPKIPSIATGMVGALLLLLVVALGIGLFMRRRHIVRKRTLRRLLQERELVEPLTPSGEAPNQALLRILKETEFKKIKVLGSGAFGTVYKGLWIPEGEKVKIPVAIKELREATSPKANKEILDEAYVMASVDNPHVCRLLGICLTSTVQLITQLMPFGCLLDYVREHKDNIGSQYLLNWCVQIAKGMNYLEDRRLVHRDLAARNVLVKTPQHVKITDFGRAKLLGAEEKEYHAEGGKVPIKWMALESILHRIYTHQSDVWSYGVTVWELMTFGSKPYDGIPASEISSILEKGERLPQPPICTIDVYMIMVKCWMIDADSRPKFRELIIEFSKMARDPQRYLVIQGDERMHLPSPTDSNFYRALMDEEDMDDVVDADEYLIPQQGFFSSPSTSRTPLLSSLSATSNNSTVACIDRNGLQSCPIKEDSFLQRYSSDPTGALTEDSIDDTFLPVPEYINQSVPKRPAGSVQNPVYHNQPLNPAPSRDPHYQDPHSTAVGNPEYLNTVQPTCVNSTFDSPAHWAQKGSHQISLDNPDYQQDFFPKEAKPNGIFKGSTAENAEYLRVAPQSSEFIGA

| Compound | IC50 [1] [µM] | IC50 [2] [µM] | IC50 [3] [nM] | IC50 [4] [nM] |
| --- | --- | --- | --- | --- |
| C=CC(=O)N1CCCC[C@@H](n2c(NC(=O)c3ccnc(C)c3)nc3cc(CN4CC[C@H](OC)C4)cc(C)c32)C1 [Example 17-149] | < 0.001 | < 0.001 | < 1 | 48 |
| C=CC(=O)N1CCCC[C@@H](n2c(NC(=O)c3ccnc(C)c3)nc3cc(CN4CC[C@@H](OC)C4)cc(C)c32)C1 [Example 17-150] | 0.001 | 0.001 | 2 | 59 |

The remaining lines, values ahead:

| IC50 [1] [µM] | IC50 [2] [µM] | IC50 [3] [nM] | IC50 [4] [nM] | Compound |
| --- | --- | --- | --- | --- |
| < 0.001 | < 0.001 | < 1 | 44 | C=CC(=O)N1CCCC[C@@H](n2c(NC(=O)c3ccnc(C)c3)nc3cc(CN4CC[C@H](F)C4)cc(C)c32)C1 [Example 17-147] |
| 0.001 | 0.002 | 1 | 52 | C=CC(=O)N1CCCC[C@@H](n2c(NC(=O)c3ccnc(C)c3)nc3cc(CN4CC[C@@H](F)C4)cc(C)c32)C1 [Example 17-148] |
| < 0.001 | 0.001 | 1 | 46 | C=CC(=O)N1CCCC[C@@H](n2c(NC(=O)c3ccnc(C)c3)nc3cc(CN4CC(F)C4)cc(C)c32)C1 [Example 17-152] |
| < 0.001 | 0.001 | < 1 | 38 | C=CC(=O)N1CCCC[C@@H](n2c(NC(=O)c3ccnc(C)c3)nc3cc(CN4CC(OC)C4)cc(C)c32)C1 [Example 17-154] |
